Assay in all cases: NCI tumour cell line growth inhibition, 48 h
The test system of test [1] is SK-MEL-28 melanoma.
Test [2] relates to HCT-15 colon.
The subject of test [3] is U251 CNS.
Test [4] relates to 786-0 renal.
The subject of test [5] is LOX IMVI melanoma.
The test system of test [6] is SNB-19 CNS.
Test [7] concerns NCI-H460 lung.
Test [8] relates to PC-3 prostate.
Test [9] has as its system MALME-3M melanoma.
Test [10] deals with HT29 colon.

SMILES strings stand for the structures.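 Interpolation was linear, between the two tested concentrations surrounding the appropriate level; five concentrations were tested over 48 hours in 96-well plates. GI50 marks 50% less growth. TGI is the concentration that stops growth completely.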 Where only a bound is given, the exact number is not on record here.

For the compound `O=C1Nc2ccc(-c3cccnc3)cc2/C1=C/c1cc(Br)c(O)c(Br)c1`, the GI50 is 4.89 µM in test [1]; 6.8 µM in test [2]; 6.11 µM in test [3]; 7.18 µM in [4]; 4.99 µM in test [5]; 9.11 µM in [6]. Besides, the GI50 in [7] was 6.97 µM; in test [8], 9.05 µM; in [9], 3.96 µM; in [10], 7.06 µM. Besides, the TGI in [1] is 14.6 µM; in test [2], over 25 µM; in test [3] it was over 25 µM; in test [4] it was over 25 µM; in test [5], over 25 µM; in [6], over 25 µM. In addition, the TGI in [7] was over 25 µM; in test [8], over 25 µM; in test [9], 23.9 µM; in test [10], over 25 µM.
In the case of `CC(C)(C)O/N=C/c1cc(NC(=S)c2ccccc2)ccc1Cl`, the TGI in [1] worked out at 32.5 µM; in [2], 32.1 µM; in test [3], 45.5 µM; in [4] it was 32.5 µM; in [5], 30.4 µM; in test [6], 63.8 µM. In addition, the TGI turned out to be 24.3 µM in test [7], 46 µM in [8], 40.6 µM in test [9] and 29.2 µM in test [10].
As to `O=C1c2cccc3c(N4CCOCC4)ccc(c23)C(=O)N1CCN1CCN(CCCCCN2CCN(CCN3C(=O)c4cccc5c(N6CCOCC6)ccc(c45)C3=O)CC2)CC1`, the GI50 in [1] is over 100 µM; in test [2], over 100 µM; in test [3], over 100 µM; in test [4], 55.8 µM; in [5] it was over 100 µM; in test [6] it was over 100 µM. Moreover, the GI50 is over 100 µM in [7], over 100 µM in [8], over 100 µM in [9] and 58 µM in test [10]. Also, the TGI in test [1], in test [2], in [3], in [4], in [5] and in test [6] was over 100 µM throughout. Further, the TGI in test [7], in test [8], in [9] and in test [10] was over 100 µM in each case.
`NC1=NC(c2ccccc2Cl)c2c(n[nH]c2N)N1` (stereo not drawn): the GI50 was 42.5 µM in test [1]; 30.8 µM in [2]; 28 µM in [3]; 9.18 µM in test [4]; 2.98 µM in test [5]; 39.7 µM in test [6]. Also, the GI50 in [7] is 5.9 µM; in test [8], 85.8 µM; in test [9], 61.3 µM. Further, the TGI in [1], in test [2], in [3], in test [4], in test [5] and in test [6] was over 100 µM throughout. The TGI in test [7], in test [8] and in [9] was over 100 µM in each case.
For `Nc1ncnc2c1c(-c1ccc(Oc3ccccc3)cc1)nn2CC1SSCC1O` (stereo not drawn), the GI50 was 0.131 µM in test [1]; 3.03 µM in test [2]; 4.31 µM in test [3]; 4.86 µM in [4]; 0.335 µM in test [5]; 5.51 µM in test [6]. Moreover, the GI50 in [7] was 0.111 µM; in test [8], 6.23 µM; in test [9] it was 0.847 µM; in test [10], 1.27 µM. The TGI worked out at 0.92 µM in test [1]; 9.88 µM in test [2]; 9.66 µM in [3]; 11.2 µM in test [4]; 4.96 µM in test [5]; 13 µM in test [6]. In addition, the TGI in [7] is 7.97 µM; in [8] it was 14.9 µM; in test [9] it was 3.78 µM; in [10], 6.36 µM.
In the case of `Cc1ccc2ccc3c4ccccc4ccc3c2c1`, the GI50 in test [1] was 39.4 µM; in test [2], 23.3 µM; in [3], 28.3 µM; in test [4] it was 24.4 µM; in test [5], 19.8 µM; in test [6], 26.7 µM. The GI50 is 26.3 µM in test [7], 30.4 µM in test [8], 22.1 µM in test [9] and 22.9 µM in test [10]. The TGI in [1] is over 100 µM; in [2] it was 83.5 µM; in [3] it was over 100 µM; in test [4], 69.8 µM; in test [5], 44.3 µM; in test [6], over 100 µM. Also, the TGI in test [7] is 76 µM; in test [8], over 100 µM; in [9], 54.3 µM; in [10] it was 77.7 µM.
As to `Oc1cn(-c2ccc(Cl)cc2)nc1-c1n[nH]c(=S)n1-c1ccc(F)cc1`, the GI50 in test [1] is 20.4 µM; in test [2] it was 11.3 µM; in test [3] it was 15.8 µM; in test [4], 28.1 µM; in test [5], 16.8 µM; in test [6], 61.9 µM. For the same compound, the GI50 in test [7] is 11.9 µM; in [8], 14.8 µM; in test [9] it was 25.9 µM; in test [10], 43.2 µM. In addition, the TGI in [1] is over 100 µM; in test [2], over 100 µM; in test [3], over 100 µM; in [4] it was over 100 µM; in test [5], 43 µM; in test [6], over 100 µM. The TGI in [7] is 40.8 µM; in [8] it was over 100 µM; in test [9], over 100 µM; in test [10] it was over 100 µM.
In the case of `N=C(N)n1cc(/C=N/N=C(N)N)cn1`, the TGI in test [1], in test [2], in test [3], in [4], in test [5] and in test [6] was over 100 µM in each case. Also, the TGI in [7], in test [8], in [9] and in [10] was over 100 µM in each case.
